Reference: US7465544B2, “Synthetic cofactor analogs of S-adenosylmethionine as ligatable probes of biological methylation and methods for their use” (Wisconsin Alumni Research Foundation, priority 2006, dated 2008)
Counter-ions that a name gives are not always drawn.

Experiments:
Assay type in all cases: biochemical
M.TaqI [1] = biological target: T1, M.TaqI (Thermus aquaticus, UniProt P14385); experiment: Restriction/protection assay: M.TaqI-mediated alkylation of R.EcoRI-linearized pUC19; conditions: for extent of DNA alkylation (protection from R.TaqI digestion) with increasing M.TaqI: 14.3 nM linearized pUC19, 20 to 200 nM M.TaqI, 65° C. 4 h; for extent of DNA alkylation (protection from R.TaqI digestion) with increasing M.TaqI / protection of DNA from R.TaqI in the absence of M.TaqI: 100 μM cofactor analog; for protection of DNA from R.TaqI in the absence of M.TaqI: no M.TaqI; for protection from R.TaqI with increasing cofactor analog concentration: 10 to 100 μM cofactor analog, 200 nM M.TaqI; for efficiency of M.TaqI dependent DNA alkylation relative to 3: linearized pUC19, disappearance of smaller restriction fragments
M.EcoRI = M.EcoRI (Escherichia coli, UniProt P00472)
M.TaqI [2] = biological target: T1, M.TaqI
M.HpaII = biological target: T2, M.HpaII (Haemophilus parainfluenzae, UniProt P15446); experiment: M.HpaII-catalyzed transfer of cofactor analogs to DNA
T2 construct: purchased New England Biolabs
T2 sequence (P15446 1-358): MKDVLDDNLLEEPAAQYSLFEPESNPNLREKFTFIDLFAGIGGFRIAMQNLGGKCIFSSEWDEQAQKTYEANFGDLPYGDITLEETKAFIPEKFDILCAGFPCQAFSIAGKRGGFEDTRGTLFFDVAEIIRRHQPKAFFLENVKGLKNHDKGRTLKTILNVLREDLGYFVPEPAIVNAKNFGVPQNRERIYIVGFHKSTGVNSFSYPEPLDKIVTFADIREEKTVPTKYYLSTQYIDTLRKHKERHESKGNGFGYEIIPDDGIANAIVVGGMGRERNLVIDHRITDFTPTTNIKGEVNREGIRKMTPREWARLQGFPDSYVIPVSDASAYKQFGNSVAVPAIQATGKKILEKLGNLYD

M.SssI = M.SssI (Spiroplasma monobiae, UniProt P15840)
M.HhaI = M.HhaI (Haemophilus parahaemolyticus, UniProt P05102)
M.HhaI, sequence (P05102 whole entry): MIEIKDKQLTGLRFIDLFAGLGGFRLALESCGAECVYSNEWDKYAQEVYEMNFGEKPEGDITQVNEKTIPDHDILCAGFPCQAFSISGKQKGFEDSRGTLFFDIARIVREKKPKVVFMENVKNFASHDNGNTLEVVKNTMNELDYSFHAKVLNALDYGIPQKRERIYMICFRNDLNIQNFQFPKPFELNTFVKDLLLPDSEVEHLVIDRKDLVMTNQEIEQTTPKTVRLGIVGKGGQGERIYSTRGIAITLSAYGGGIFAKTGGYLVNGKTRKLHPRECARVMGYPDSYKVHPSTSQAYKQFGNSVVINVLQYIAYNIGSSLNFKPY

M.EcoRI, sequence (P00472 whole entry): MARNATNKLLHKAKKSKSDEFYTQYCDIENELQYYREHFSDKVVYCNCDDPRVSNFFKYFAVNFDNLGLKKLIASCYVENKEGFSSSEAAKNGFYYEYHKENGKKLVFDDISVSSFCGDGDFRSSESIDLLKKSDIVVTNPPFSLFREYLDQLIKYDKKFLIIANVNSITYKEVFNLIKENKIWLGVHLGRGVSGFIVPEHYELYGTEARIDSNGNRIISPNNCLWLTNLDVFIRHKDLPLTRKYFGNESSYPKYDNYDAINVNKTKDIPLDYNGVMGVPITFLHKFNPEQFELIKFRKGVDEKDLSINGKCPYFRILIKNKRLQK
M.SssI, sequence (P15840 whole entry): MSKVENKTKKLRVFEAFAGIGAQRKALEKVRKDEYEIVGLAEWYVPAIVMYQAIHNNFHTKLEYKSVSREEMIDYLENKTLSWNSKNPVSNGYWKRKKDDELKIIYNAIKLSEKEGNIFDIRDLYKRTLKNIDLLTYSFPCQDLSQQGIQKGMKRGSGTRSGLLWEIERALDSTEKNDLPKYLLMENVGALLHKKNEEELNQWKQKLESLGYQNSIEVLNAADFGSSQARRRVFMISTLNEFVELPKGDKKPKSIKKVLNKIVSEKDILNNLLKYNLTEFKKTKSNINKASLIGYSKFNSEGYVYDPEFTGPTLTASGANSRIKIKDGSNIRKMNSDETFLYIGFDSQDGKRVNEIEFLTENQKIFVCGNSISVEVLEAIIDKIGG
T1 sequence (P14385 whole entry, the tested form may be a part): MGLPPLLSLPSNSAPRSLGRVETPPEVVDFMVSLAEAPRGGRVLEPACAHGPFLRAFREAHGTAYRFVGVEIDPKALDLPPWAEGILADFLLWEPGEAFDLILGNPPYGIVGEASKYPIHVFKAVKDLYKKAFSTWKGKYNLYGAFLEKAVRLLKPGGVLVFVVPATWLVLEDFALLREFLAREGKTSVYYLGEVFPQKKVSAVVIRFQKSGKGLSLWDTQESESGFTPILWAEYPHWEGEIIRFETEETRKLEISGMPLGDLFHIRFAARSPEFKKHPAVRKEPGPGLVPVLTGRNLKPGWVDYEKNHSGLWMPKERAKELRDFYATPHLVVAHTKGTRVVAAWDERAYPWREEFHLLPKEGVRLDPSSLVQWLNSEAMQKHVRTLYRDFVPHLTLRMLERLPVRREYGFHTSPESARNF

Row | Compound | extent of DNA alkylation (protection from R.TaqI digestion) with increasing M.TaqI (M.TaqI [1]) | protection of DNA from R.TaqI in the absence of M.TaqI (M.TaqI [1]) | protection from R.TaqI with increasing cofactor analog concentration (M.TaqI [1]) | transfer of cofactor analog to radiolabeled synthetic oligo duplex (M.EcoRI) | covalent attachment to synthetic oligonucleotide (DNA mobility shift) (M.TaqI [2]) | M.HpaII-catalyzed transfer of cofactor analog (M.HpaII) | efficiency of M.TaqI dependent DNA alkylation relative to 3 (M.TaqI [1]) | M.HhaI-catalyzed transfer of cofactor analog (M.HhaI) | DNA alkylation at 200 nM cofactor analog (M.EcoRI) | also measured
1 | 5′-aziridine adenylate [compound 3, reference compound] | increase in the amount of DNA alkylation | no protection of the DNA | increased protection from R.TaqI | clearly capable of transferring | pronounced shift of the DNA mobility | compatible | – | – | – | –
2 | [N-]=[N+]=Nc1nc2c(N)ncnc2n1[C@@H]1O[C@H](CN2CC2)C(O)[C@@H]1O (stereo partly shown) [24a, 8-azido-5′-aziridino-5′-deoxyadenosine] | increase in the amount of DNA alkylation | no protection of the DNA | increased protection from R.TaqI | closely parallels that observed with M.TaqI | pronounced shift of the DNA mobility | not able to catalyze the transfer | better cofactor analogs for M.TaqI than is the unsubstituted cofactor analog 3 | catalyzed the transfer | – | M.SssI transfer of cofactor analog to its recognition sequence (M.SssI): readily transfers; efficiency of M.SssI mediated DNA alkylation, hemimethylated duplex 9 versus unmethylated duplex 8 (M.SssI): significantly more efficient for hemimethylated duplex 9; transfer to the 55-mer duplex 5 (M.TaqI [2]): effectively catalyze the transfer; transfer to the 55-mer duplex 5 (M.HhaI): effectively catalyze the transfer
3 | [N-]=[N+]=NCCCCNc1nc2c(N)ncnc2n1[C@@H]1O[C@H](CN2CC2)[C@H](O)C1O (stereo partly shown) [24b, 8-(4″-Azido-butylamino)-5′-aziridino-5′-deoxy adenosine] | increase in the amount of DNA alkylation | no protection of the DNA | increased protection from R.TaqI | closely parallels that observed with M.TaqI | pronounced shift of the DNA mobility | not able to catalyze the transfer | better cofactor analogs for M.TaqI than is the unsubstituted cofactor analog 3 | catalyzed the transfer | – | –
4 | C#CCN(CCI)C[C@H]1O[C@@H](n2cnc3c(N)ncnc32)[C@@H](O)C1O (stereo partly shown) [compound 56, 5′-[(iodoethyl)propargyl)amino]-2′,3′-5′-deoxyadenosine hydrochloride] | – | – | – | – | – | – | – | – | not active at all | protection of linearized pUC19 DNA from R.TaqI digestion (M.TaqI [1]; brief treatments with M.TaqI, unpublished data): used very effectively to protect linearized pUC19 DNA from R.TaqI digestion; DNA alkylation activity relative to 3 (M.EcoRI): closely parallels that of 3; alkylation of duplex pre-methylated with SAM (M.EcoRI): failed to undergo reaction; DNA alkylation activity relative to 3 (M.TaqI [2]): closely parallels that of 3; alkylation of duplex pre-methylated with SAM (M.TaqI [2]): failed to undergo reaction; DNA-damaging activity in the presence of M.HhaI (M.HhaI): completely devoid of DNA-damaging activity
5 | Nc1ncnc2c1ncn2[C@@H]1O[C@H](CN(CCI)CC[C@H](N)C(=O)O)C(O)[C@@H]1O (stereo partly shown) [compound 67, 5′-(diaminobutyric acid)-N-iodoethyl-5′-deoxyadenosine ammonium hydrochloride] | – | – | – | – | – | – | – | – | significant amount of slow mobility DNA | alkylation of duplex bearing 5-MeC for C substitution at the target base (M.SssI): failed to undergo alkylation; lowest concentration at which cofactor analog is active (M.EcoRI): ≤ 40 nM; alkylation of duplex bearing 5-MeC for C substitution at the target base (M.HhaI): failed to undergo alkylation
